Source: patent US6518268B1, “Telomerase inhibitors and methods of their use” (Geron Corporation, priority 1999, dated 2003)
Blank lines part the entries; values can stand above or below the compound they belong to.

Tests used:
[1] = molecular target: T1, partially purified telomerase from a nuclear extract of HEK293 cells (Homo sapiens, UniProt O14746); test: In vitro telomerase inhibition, membrane hybridization method (U.S. Pat. No. 5,760,062); assay type: biochemical; conditions: for IC50: partially purified telomerase from nuclear extract of HEK293 cells; for residual activity of in vitro telomerase activity (in parenthesis): in the presence of the compound at a concentration of 10 μm
T1 construct: partially purified telomerase from a nuclear extract of HEK293 cells; endogenous in cells; host or cells: HEK293 cells, nuclear extract, partially purified
T1 sequence (O14746 whole entry): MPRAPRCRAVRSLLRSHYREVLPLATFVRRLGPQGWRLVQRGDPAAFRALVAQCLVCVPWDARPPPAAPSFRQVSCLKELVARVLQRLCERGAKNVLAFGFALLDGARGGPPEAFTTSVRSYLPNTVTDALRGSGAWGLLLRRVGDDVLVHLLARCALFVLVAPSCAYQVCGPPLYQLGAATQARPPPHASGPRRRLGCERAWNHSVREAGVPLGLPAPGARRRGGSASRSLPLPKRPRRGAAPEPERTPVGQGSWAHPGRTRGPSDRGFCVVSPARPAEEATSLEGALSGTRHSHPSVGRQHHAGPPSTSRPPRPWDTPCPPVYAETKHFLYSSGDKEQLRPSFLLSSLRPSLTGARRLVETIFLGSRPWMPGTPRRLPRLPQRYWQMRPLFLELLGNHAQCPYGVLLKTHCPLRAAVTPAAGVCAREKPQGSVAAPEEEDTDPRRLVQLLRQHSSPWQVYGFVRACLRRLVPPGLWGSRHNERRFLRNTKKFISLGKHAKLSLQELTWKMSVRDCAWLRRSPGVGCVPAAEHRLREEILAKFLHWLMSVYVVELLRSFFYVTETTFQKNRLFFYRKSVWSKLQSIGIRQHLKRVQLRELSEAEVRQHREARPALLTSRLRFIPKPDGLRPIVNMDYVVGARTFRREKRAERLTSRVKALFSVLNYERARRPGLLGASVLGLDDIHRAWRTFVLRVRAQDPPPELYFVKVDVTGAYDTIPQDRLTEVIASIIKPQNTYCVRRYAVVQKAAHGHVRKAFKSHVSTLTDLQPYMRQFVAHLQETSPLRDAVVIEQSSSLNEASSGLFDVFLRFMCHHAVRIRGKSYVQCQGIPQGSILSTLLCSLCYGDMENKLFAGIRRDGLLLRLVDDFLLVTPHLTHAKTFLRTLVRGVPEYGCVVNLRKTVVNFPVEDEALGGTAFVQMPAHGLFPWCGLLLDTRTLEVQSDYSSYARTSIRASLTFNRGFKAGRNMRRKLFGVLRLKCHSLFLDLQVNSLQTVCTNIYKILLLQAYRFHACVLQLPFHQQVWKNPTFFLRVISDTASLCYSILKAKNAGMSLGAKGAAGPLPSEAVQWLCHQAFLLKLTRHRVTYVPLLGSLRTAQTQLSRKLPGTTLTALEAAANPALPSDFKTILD
T1 sequence (O60832 whole entry partner): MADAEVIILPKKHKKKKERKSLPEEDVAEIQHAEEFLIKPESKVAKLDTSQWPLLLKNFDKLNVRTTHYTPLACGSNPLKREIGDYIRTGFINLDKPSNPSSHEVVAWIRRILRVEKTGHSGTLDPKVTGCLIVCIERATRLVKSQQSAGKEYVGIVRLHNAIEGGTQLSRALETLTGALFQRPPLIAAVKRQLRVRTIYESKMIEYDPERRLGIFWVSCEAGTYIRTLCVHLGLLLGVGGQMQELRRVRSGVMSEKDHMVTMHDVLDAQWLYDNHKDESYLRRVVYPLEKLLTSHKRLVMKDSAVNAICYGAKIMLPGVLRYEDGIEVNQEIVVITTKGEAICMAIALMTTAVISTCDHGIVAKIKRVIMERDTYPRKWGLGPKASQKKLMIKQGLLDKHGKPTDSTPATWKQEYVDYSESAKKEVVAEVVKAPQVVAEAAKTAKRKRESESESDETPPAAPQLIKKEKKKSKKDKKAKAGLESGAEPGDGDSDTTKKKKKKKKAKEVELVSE
T1 sequence (Q9NPE3 whole entry partner): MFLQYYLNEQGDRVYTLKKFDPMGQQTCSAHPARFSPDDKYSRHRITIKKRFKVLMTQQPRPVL
T1 sequence (Q9NX24 whole entry partner): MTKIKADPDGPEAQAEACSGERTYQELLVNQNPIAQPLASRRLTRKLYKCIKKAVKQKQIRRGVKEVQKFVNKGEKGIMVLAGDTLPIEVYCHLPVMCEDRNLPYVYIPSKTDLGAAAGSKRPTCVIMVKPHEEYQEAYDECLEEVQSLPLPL
T1 sequence (Q9NY12 whole entry partner): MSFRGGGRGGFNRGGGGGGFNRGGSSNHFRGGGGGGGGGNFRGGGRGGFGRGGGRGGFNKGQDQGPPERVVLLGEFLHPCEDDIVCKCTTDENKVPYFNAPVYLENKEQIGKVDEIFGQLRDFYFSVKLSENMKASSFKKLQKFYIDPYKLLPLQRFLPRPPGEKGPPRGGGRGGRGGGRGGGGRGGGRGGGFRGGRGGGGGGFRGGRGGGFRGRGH
Procedure: Alternatively, telomerase inhibitory activity of the compounds was measured in accordance with a known method (U.S. Pat. No. 5,760,062). That is, a dimethyl sulfoxide (DMSO) solution of each agent was mixed with partially purified telomerase from a nuclear extract of HEK293 cells and incubated in the presence of an oligodeoxynucleotide to be used as the substrate and deoxynucleotide triphosphate. The obtained reacted product (DNA having a telomere sequence) was adsorbed on a membrane, and hybridization was carried out using a labeled oligonucleotide probe having a sequence complementary to the telomere sequence. The inhibition ratio was calculated based on the ratio of the signal of label on the membrane in the presence of the agent to the signal of label in the absence of the agent (control). Also, concentration of each agent which inhibits 50% of the enzyme activity based on the control was used as IC50.

[2] = molecular target: T2, telomerase in human renal carcinoma cell line ACHN (Homo sapiens, UniProt O14746); test: Telomerase activity in extract of agent-treated ACHN cells (TRAP assay); assay type: cell-based; conditions: contact 3 days
T2 construct: human renal carcinoma cell line ACHN for 3 days, and then a cell extract was prepared; endogenous in cells; host or cells: ACHN human renal carcinoma cells; CHAPS extract after 3 days of treatment
T2 sequence (O14746 whole entry): as the sequence (O14746 whole entry) above
T2 sequence (O60832 whole entry partner): as the sequence (O60832 whole entry partner) above
T2 sequence (Q9NPE3 whole entry partner): as the sequence (Q9NPE3 whole entry partner) above
T2 sequence (Q9NX24 whole entry partner): as the sequence (Q9NX24 whole entry partner) above
T2 sequence (Q9NY12 whole entry partner): as the sequence (Q9NY12 whole entry partner) above
Procedure: That is, a cell extract was prepared using a buffer solution containing 0.5% CHAPS. Using the extract, TRAP (Telomeric Repeat Amplification Protocol) assay was carried out in vitro (TRAPEZE™ ELISA Telomerase Detection Kit, manufactured by Intergen). The ratio (%) of the enzyme activity in the extract from agent-treated cells to the enzyme activity in the extract from agent-untreated cells was calculated.

[3] = concentration 10 μM, read-out: Residual Enzyme Activity (%)
[4] = concentration 30 μM, read-out: Residual Enzyme Activity (%)

Structure (SMILES): O=C1NC(=O)C(=Cc2cc([N+](=O)[O-])ccc2S(=O)(=O)C2CCCCC2)S1 [Compound 86]
- IC50 [1]: 8 µM
- remaining activity at 10 µM [2, 3]: 44%

Structure (SMILES): Cc1ccc(COc2ccccc2C=C2SC(=O)NC2=O)cc1 [Compound 22]
- Residual Enzyme Activity (%) ([2]; concentration 100 μM): 33%

Structure (SMILES): Cc1ccc([S+]([O-])c2ccc(C=C3SC(=O)NC3=O)cc2Br)cc1 (centres unmarked) [Compound 143]
- residual activity of in vitro telomerase activity (in parenthesis) [1]: (62%)
- Residual Enzyme Activity (%) ([2]; concentration 30 μM): 36%

Structure (SMILES): O=C1NC(=O)C(=Cc2cc([N+](=O)[O-])ccc2[S+]([O-])c2ccncc2)S1 (centres unmarked) [Compound 120]
- IC50 [1]: 9.3 µM
- Residual Enzyme Activity (%) ([2]; concentration 10 μM): 40%

Structure (SMILES): Cc1ccc(S(=O)(=O)c2ccc([N+](=O)[O-])cc2C=C2SC(=O)NC2=O)cc1 [Compound 5]
- IC50 [1]: 23 µM
- Residual Enzyme Activity (%) ([2]; concentration 10 μM): 16%

Structure (SMILES): Cc1ccc([S+]([O-])c2ccc(C=C3SC(=O)NC3=O)cc2[N+](=O)[O-])cc1 (centres unmarked) [Compound 82]
- residual activity of in vitro telomerase activity (in parenthesis) [1]: (51%)
- Residual Enzyme Activity (%) ([2]; concentration 3 μM): 23%

Structure (SMILES): Cc1ccc([S+]([O-])c2ccc(C=C3SC(=O)NC3=O)cc2Cl)cc1 (centres unmarked) [Compound 141]
- residual activity of in vitro telomerase activity (in parenthesis) [1]: (64%)
- Residual Enzyme Activity (%) ([2]; concentration 30 μM): 26%

Structure (SMILES): Cc1ccc(Oc2cccc(C=C3SC(=O)NC3=O)c2)cc1 [Compound 12]
- IC50 [1]: 5.8 µM
- Residual Enzyme Activity (%) ([2]; concentration 100 μM): 26%

Structure (SMILES): O=C1NC(=O)C(=Cc2cc([N+](=O)[O-])ccc2OCc2ccccc2)S1 [Compound 16]
- IC50 [1]: 26 µM
- Residual Enzyme Activity (%) ([2]; concentration 100 μM): 0%

Structure (SMILES): O=C1NC(=O)C(=Cc2cc(C(=O)c3ccc(Cl)cc3)c(S(=O)(=O)c3ccc(Cl)cc3)s2)S1 [Compound 66]
- IC50 [1]: 3.7 µM
- Residual Enzyme Activity (%) ([2]; concentration 30 μM): 0%

Structure (SMILES): O=C1NC(=O)C(=Cc2ccc(Oc3ccccc3)cc2)S1 [Compound 14]
- IC50 [1]: 4 µM
- Residual Enzyme Activity (%) ([2]; concentration 100 μM): 47%

Structure (SMILES): Cc1ccc(Sc2ccc(-c3ccccn3)cc2C=C2SC(=O)NC2=O)cc1 [Compound 89]
- residual activity of in vitro telomerase activity (in parenthesis) [1]: (56%)
- Residual Enzyme Activity (%) ([2]; concentration 30 μM): 2%

Structure (SMILES): O=C1NC(=O)/C(=C/c2cc([N+](=O)[O-])ccc2[S+]([O-])c2ccc(Cl)c(Cl)c2)S1 (centres unmarked) [Compound 135]
- IC50 [1]: 4.5 µM
- remaining activity at 3 µM ([2]; concentration 3 μM, read-out: Residual Enzyme Activity (%)): 14%

Structure (SMILES): Cc1ccc(S(=O)(=O)c2ccc(C=C3SC(=O)NC3=O)cc2[N+](=O)[O-])cc1 [Compound 83]
- residual activity of in vitro telomerase activity (in parenthesis) [1]: (58%)
- Residual Enzyme Activity (%) ([2]; concentration 10 μM): 32%

Structure (SMILES): Cc1ccc([S+]([O-])c2ccc([N+](=O)[O-])cc2C=C2SC(=O)NC2=O)cc1 (centres unmarked) [Compound 4]
- IC50 [1]: 30 µM
- Residual Enzyme Activity (%) ([2]; concentration 10 μM): 16%

Structure (SMILES): CCc1ccc([S+]([O-])c2ccc([N+](=O)[O-])cc2/C=C2\SC(=O)NC2=O)cc1 (centres unmarked) [Compound 133]
- IC50 [1]: 9.1 µM
- remaining activity at 10 µM [2, 3]: 11%

Structure (SMILES): Cc1ccc(COc2ccc([N+](=O)[O-])c(C=C3SC(=O)NC3=O)c2)cc1 [Compound 21]
- IC50 [1]: 4.3 µM
- Residual Enzyme Activity (%) ([2]; concentration 30 μM): 35%

Structure (SMILES): Cc1ccc(Sc2ccc([N+](=O)[O-])cc2C=C2SC(=S)NC2=O)cc1 [Compound 38]
- Residual Enzyme Activity (%) ([2]; concentration 30 μM): 36%

Structure (SMILES): O=C1NC(=O)C(=Cc2cc([N+](=O)[O-])ccc2[S+]([O-])c2cccc(Cl)c2)S1 (centres unmarked) [Compound 134]
- residual activity of in vitro telomerase activity (in parenthesis) [1]: (59%)
- Residual Enzyme Activity (%) ([2]; concentration 10 μM): 4%

Structure (SMILES): O=C1NC(=O)C(=Cc2cc([N+](=O)[O-])ccc2S(=O)(=O)Cc2ccccc2)S1 [Compound 78]
- IC50 [1]: 5.5 µM
- remaining activity at 10 µM [2, 3]: 25%

Structure (SMILES): O=C1NC(=O)C(=Cc2cccc(Oc3ccccc3)c2)S1 [Compound 11]
- Residual Enzyme Activity (%) ([2]; concentration 100 μM): 50%

Structure (SMILES): CC(=O)Nc1ccc(Sc2ccc(C)cc2)c(C=C2SC(=O)NC2=O)c1 [Compound 3]
- Residual Enzyme Activity (%) ([2]; concentration 100 μM): 0%

Structure (SMILES): Cc1ccc([S+]([O-])c2ccc(C(F)(F)F)cc2C=C2SC(=O)NC2=O)cc1 (centres unmarked) [Compound 113]
- residual activity of in vitro telomerase activity (in parenthesis) [1]: (68%)
- Residual Enzyme Activity (%) ([2]; concentration 30 μM): 37%

Structure (SMILES): Cc1ccc([S+]([O-])c2ccc(-c3cccs3)cc2C=C2SC(=O)NC2=O)cc1 (centres unmarked) [Compound 93]
- residual activity of in vitro telomerase activity (in parenthesis) [1]: (55%)

Structure (SMILES): Cc1ccc(COc2ccc([N+](=O)[O-])cc2C=C2SC(=O)NC2=O)cc1 [Compound 18]
- IC50 [1]: 11 µM

Now from value to compound:

- IC50 [1]: 7.4 µM
- remaining activity at 30 µM [2, 4]: 50%
Structure (SMILES): CCN(CC)C(=O)c1cc(C=C2SC(=O)NC2=O)c(Sc2ccc(Cl)cc2)s1 [Compound 54]

- IC50 [1]: 5.6 µM
- remaining activity at 30 µM [2, 4]: 41%
Structure (SMILES): Cc1ccc(Sc2ccc(-c3cccs3)cc2C=C2SC(=O)NC2=O)cc1 [Compound 92]

- IC50 [1]: 54 µM
- remaining activity at 30 µM [2, 4]: 24%
Structure (SMILES): O=C1NC(=O)C(=Cc2cc(C(=O)N3CCOCC3)sc2Sc2ccc(Cl)cc2)S1 [Compound 57]

- IC50 [1]: 6 µM
- Residual Enzyme Activity (%) ([2]; concentration 30 μM): 39%
Structure (SMILES): O=C1NC(=S)SC1=Cc1cc([N+](=O)[O-])ccc1Sc1ccc(Cl)cc1 [Compound 37]

- IC50 [1]: 7.9 µM
- remaining activity at 30 µM [2, 4]: 26%
Structure (SMILES): CN1CCN(C(=O)c2cc(C=C3SC(=O)NC3=O)c(Sc3ccc(Cl)cc3)s2)CC1 [Compound 56]

- IC50 [1]: 0.48 µM
- remaining activity at 10 µM [2, 3]: 16%
Structure (SMILES): O=C1NC(=O)C(=Cc2cc([N+](=O)[O-])ccc2S(=O)(=O)c2ccc(Cl)cc2)S1 [Compound 69]

- IC50 [1]: 2.7 µM
- remaining activity at 10 µM [2, 3]: 18%
Structure (SMILES): O=C1NC(=O)/C(=C/c2cc([N+](=O)[O-])ccc2[S+]([O-])c2ccc(Cl)cc2)S1 (centres unmarked) [Compound 68]

- IC50 [1]: 5.6 µM
- remaining activity at 30 µM [2, 4]: 41%
Structure (SMILES): CC(=O)c1ccc(Sc2ccc(C)cc2)c(C=C2SC(=O)NC2=O)c1 [Compound 97]

- IC50 [1]: 21 µM
- Residual Enzyme Activity (%) ([2]; concentration 30 μM): 11%
Structure (SMILES): Cc1ccc(Sc2ccc([N+](=O)[O-])cc2C=C2SC(=O)NC2=O)cc1 [Compound 1]

- IC50 [1]: 7.8 µM
Structure (SMILES): O=C1NC(=O)C(=Cc2ccc(Sc3ccc(Cl)cc3)s2)S1 [Compound 62]

- IC50 [1]: 4.5 µM
Structure (SMILES): O=C1NC(=O)C(=Cc2cc(Sc3ccc(Cl)cc3)cs2)S1 [Compound 60]

- IC50 [1]: 4.3 µM
Structure (SMILES): O=C1NC(=O)C(=Cc2cc([N+](=O)[O-])ccc2Sc2ccc(Cl)c(Cl)c2)S1 [Compound 72]

- IC50 [1]: 2.7 µM
Structure (SMILES): O=C1NC(=O)C(=Cc2cc([N+](=O)[O-])ccc2Sc2ccc(C(F)(F)F)cc2)S1 [Compound 115]

- IC50 [1]: 0.33 µM
Structure (SMILES): O=C1NC(=O)C(=Cc2cc(Sc3ccc(Cl)cc3)c(Sc3ccc(Cl)cc3)s2)S1 [Compound 61]

- IC50 [1]: 5.3 µM
Structure (SMILES): O=C1NC(=O)C(=Cc2cc(C(=O)Nc3ccccc3)sc2Sc2ccc(Cl)cc2)S1 [Compound 55]
